# Where two headings read alike, the source gives them in different places.
# Key:
# human GPR142 = molecular target: T1, human GPR142 (Homo sapiens, UniProt Q7Z601); assay: IP-1 accumulation assay in HEK293 cells stably expressing human GPR142; format: cell-based; conditions: for EC50: IP-1 accumulation, 1 hour, read-out: HEK293-hGPR142 EC50; for HEK293-hGPR142 EC50 (Emax): activity call, tested 170 nM to 30 mM
# T1 construct: expressed in transfected cells
# T1 sequence (Q7Z601 1-374 isoform Q7Z601-2): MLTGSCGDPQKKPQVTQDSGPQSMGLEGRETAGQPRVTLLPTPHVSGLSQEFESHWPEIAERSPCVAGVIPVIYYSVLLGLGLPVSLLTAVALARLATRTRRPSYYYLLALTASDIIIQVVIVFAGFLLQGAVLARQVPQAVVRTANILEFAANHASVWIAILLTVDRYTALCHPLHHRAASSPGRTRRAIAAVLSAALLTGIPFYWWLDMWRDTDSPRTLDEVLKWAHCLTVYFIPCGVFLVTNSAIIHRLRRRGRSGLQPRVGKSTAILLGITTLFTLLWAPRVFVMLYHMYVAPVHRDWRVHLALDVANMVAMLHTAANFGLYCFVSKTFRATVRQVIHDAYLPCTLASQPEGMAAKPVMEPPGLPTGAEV
# Protocol: (§1) HEK293 cells obtained from ATCC were used to generate cell lines stably expressing human GPR142 or mouse Gpr142 by transfecting cells with pcDNA3.1 expression vectors containing each cDNA. Cells expanded from single clones were maintained in DMEM containing 10% fetal bovine serum (FBS) and 800 μg/ml G418. Untransfected control HEK293 cells were maintained in DMEM containing 10% FBS. Cells were plated in 384 well plates at 5000 cells per well and allowed 18 hours for attachment. After addition of compounds, cells were incubated for 1 hour. IP-1 measurements were performed using an HTRF assay kit (Cisbio) according to manufacturer’s protocol using assay buffer containing 1 × HBSS (Hank’s Balanced Salt Solution, +Ca, +Mg), 0.1% bovine serum albumin (BSA), 50 mM LiCl and 20 mM HEPES (4-(2-hydroxyethyl)-1-piperazineethanesulfonic acid), pH 7.2. The reaction was stopped by addition of IP1-d2 followed by cryptate solution and the plates were incubated at 25°C for 1 hour. Fluorescence was read in an Envision instrument at 665 nm and 620 nm. The ratio of 665 nm/620 nm was calculated and converted to IP-1 levels using a standard curve method. The data was fit to 4-parameter fit logistics to determine EC50 values.
# mouse GPR142 = molecular target: T2, mouse GPR142 (Mus musculus, UniProt Q7TQN9); assay: IP-1 accumulation assay in HEK293 cells stably expressing mouse Gpr142; format: cell-based; conditions: for Emax: HEK293, relative efficacy normalized to maximal response of L-Tryptophan (100%), read-out: HEK293-mGPR142 Emax; for EC50: IP-1 accumulation, 1 hour, read-out: HEK293-mGPR142 EC50
# T2 sequence (Q7TQN9 67-365 limits assumed): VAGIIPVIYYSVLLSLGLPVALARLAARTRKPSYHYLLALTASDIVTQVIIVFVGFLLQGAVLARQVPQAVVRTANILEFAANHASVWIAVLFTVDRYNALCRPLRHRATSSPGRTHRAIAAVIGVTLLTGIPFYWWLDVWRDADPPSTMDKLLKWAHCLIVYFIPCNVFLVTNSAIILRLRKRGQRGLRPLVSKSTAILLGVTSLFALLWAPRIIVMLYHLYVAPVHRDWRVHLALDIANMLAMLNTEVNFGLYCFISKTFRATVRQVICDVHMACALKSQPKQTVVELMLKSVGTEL
# Protocol: as §1
# [1] = Glucose tolerance test (IPGTT/OGTT) after oral dosing in mice; format: in vivo, mouse
# Protocol: (§2) Mice were fasted overnight and allowed free access to water. […] Tail blood glucose levels were measured at indicated time points using handheld glucometers. For incretin hormone measurements, blood was collected via cardiac bleeds into EDTA-tubes containing DPP-4 inhibitor (Millipore) and protease inhibitor cocktail (Thermo Fisher). For insulin measurements during GTT, blood was collected from the tail.
# murine pancreatic islets = assay: Insulin secretion in isolated murine pancreatic islets (WT and Gpr142 KO); format: cell-based, mouse; conditions: 11.1 mM glucose, 1 hour
# Protocol: Secretion was stopped by refrigerating the plates at 4°C for 3 minutes. Supernatant was removed from the wells and assayed for insulin levels using the MA6000 Mouse/Rat Insulin Kit (Meso Scale Discovery).
# [2] = Plasma insulin and incretin hormone levels after oral dosing in mice; format: in vivo, mouse
# Protocol: as §2
# Immunoassays were used to measure total GIP (Millipore, ELISA), total GLP-1, and insulin (Meso Scale Discovery). Enzymatic assays were used to measure TG, beta-hydroxybutarate (Sigma-Aldrich), and total cholesterol (Thermo Fisher). HDL-cholesterol was determined in the supernatant after removal of LDL/vLDL-cholesterol by a precipitation reagent (Sigma-Aldrich); non-HDL-cholesterol was determined by subtracting HDL from total cholesterol. Free fatty acids were measured by GC-MS.
# human pancreatic islets = assay: Insulin secretion in isolated human pancreatic islets; format: cell-based; conditions: 11 mM glucose, 1 hour, non-diabetic donor
# Source text: Human pancreatic islets were purchased from Prodo Labs at the Scharp-Lacy Research Institute (Irvine, CA, www.prodolabs.com) through the Integrated Islet Distribution Program in accordance with internal review board (IRB) ethical guidelines for use of human tissue. Islets were isolated at Prodo Labs from human pancreata from listed cadaver organ donors that were refused for primary human pancreas transplantation or isolated islets transplantion into listed diabetic recipients. […] The next day day islets were incubated for 30 min in EBSS buffer containing 0.1% BSA and 3 mM glucose. […] Islets were cultured for 60 min at 37°C. The incubation was stopped by chilling the samples on ice. The culture media was removed and stored at -20°C until its insulin concentration was measured. Insulin was measured using a custom built immunoassay (Meso Scale Discovery).
# [3] = HEK293, relative efficacy normalized to maximal response of L-Tryptophan (100%), read-out: HEK293-hGPR142 Emax
# [4] = 30 mg/kg p.o., normal C57 mice, fasted state and after oral glucose challenge
# [5] = 500 mg/kg p.o. 15 minutes prior to glucose 2 g/kg i.p.
# [6] = 500 mg/kg p.o., 10 minutes after dosing, vs WT
compound,measurement,setting,value
N[C@@H](CC(=O)O)C(=O)O [L-Aspartic Acid],Emax,human GPR142; [3],41%
same,EC50,human GPR142; 170 nM to 30 mM,> 20 mM
C[C@@H](O)[C@H](N)C(=O)O [L-Threonine],HEK293-hGPR142 EC50 (Emax),human GPR142,Inactive
N[C@@H](CS)C(=O)O [L-Cysteine],HEK293-hGPR142 EC50 (Emax),human GPR142,Inactive
NC(=O)CC[C@H](N)C(=O)O [L-Glutamine],HEK293-hGPR142 EC50 (Emax),human GPR142,Inactive
CC(C)C[C@H](N)C(=O)O [L-Leucine],HEK293-hGPR142 EC50 (Emax),human GPR142,Inactive
N[C@@H](Cc1ccc(O)cc1)C(=O)O [L-Tyrosine],Emax,human GPR142; [3],14%
same,EC50,human GPR142; 170 nM to 30 mM,16 mM
NCCCC[C@H](N)C(=O)O [L-Lysine],Emax,human GPR142; [3],20%
same,EC50,human GPR142; 170 nM to 30 mM,16 mM
CSCC[C@H](N)C(=O)O [L-Methionine],HEK293-hGPR142 EC50 (Emax),human GPR142,Inactive
N=C(N)NCCC[C@H](N)C(=O)O [L-Arginine],Emax,"human GPR142; HEK293, read-out: HEK293-hGPR142 Emax",23%
same,EC50,human GPR142; 170 nM to 30 mM,> 20 mM
N[C@H](Cc1c[nH]c2ccccc12)C(=O)O [D-Tryptophan],Emax,human GPR142; [3],29%
same,EC50,human GPR142; 170 nM to 30 mM,3.5 mM
same,significant activation of GPR142 signaling at concentrations below 10 mM,human GPR142; Table 1,None
NCC(=O)O [Glycine],HEK293-hGPR142 EC50 (Emax),human GPR142,Inactive
N[C@@H](Cc1c[nH]c2ccc(O)cc12)C(=O)O [5-OH L-Tryptophan],EC50,human GPR142; 170 nM to 30 mM,12 mM
same,HEK293-hGPR142 Emax,human GPR142; relative efficacy normalized to maximal response of L-Tryptophan (100%),34%
N[C@@H](Cc1c[nH]cn1)C(=O)O [L-Histidine],HEK293-hGPR142 EC50 (Emax),human GPR142,Inactive
"CCCc1c(C(=O)NCc2cncn2C)cnn1-c1ncc(C)c(-c2cccs2)n1 [Compound A, N-[(3-methylimidazol-4-yl)methyl]-1-[5-methyl-4-(2-thienyl)pyrimidin-2-yl]-5-propyl-pyrazole-4-carboxamide]",Emax,mouse GPR142,90%
same,EC50,mouse GPR142; 0.17 nM to 30 μM,0.00088 µM
same,Emax,human GPR142; [3],90%
same,EC50,human GPR142; 0.17 nM to 30 μM,7.1e-06 mM
same,glucose excursion during OGTT and IPGTT,"[1]; p.o. 30 minutes before glucose 2 g/kg, OGTT 10 mg/kg diet-induced obese C57 mice, IPGTT 30 mg/kg",robust suppression of glucose excursion
same,insulin secretion in WT murine islets,murine pancreatic islets,stimulated ex vivo insulin secretion
same,plasma insulin during glucose tolerance test,"[2]; 10 mg/kg p.o., diet-induced obese C57 mice, 15 minutes after glucose challenge",increase in plasma insulin
same,"meal induced GIP, GLP-1, and insulin levels","[2]; 30 mg/kg p.o. 30 minutes prior to oral mixed meal challenge (Ensure-plus 10 mL/kg), C57 mice",additional stimulatory effects
same,effects on plasma hormones and glycemia in Gpr142 KO mice,"[2]; 30 mg/kg p.o., KO mice",completely absent
same,plasma GIP level,[2]; [4],significantly increased
same,plasma GLP-1 level,[2]; [4],significantly increased
same,insulin secretion in human primary islets,human pancreatic islets,stimulated ex vivo insulin secretion
CC[C@H](C)[C@H](N)C(=O)O [L-Isoleucine],HEK293-hGPR142 EC50 (Emax),human GPR142,Inactive
N[C@@H](CCC(=O)O)C(=O)O [L-Glutamic Acid],HEK293-hGPR142 EC50 (Emax),human GPR142,Inactive
N[C@@H](CO)C(=O)O [L-Serine],HEK293-hGPR142 EC50 (Emax),human GPR142,Inactive
Nc1ccccc1C(=O)C[C@H](N)C(=O)O [L-Kynurenine],Emax,human GPR142; [3],18%
same,EC50,human GPR142; 170 nM to 30 mM,12 mM
NC(=O)C[C@H](N)C(=O)O [L-Asparagine],HEK293-hGPR142 EC50 (Emax),human GPR142,Inactive
CC(C)[C@H](N)C(=O)O [L-Valine],HEK293-hGPR142 EC50 (Emax),human GPR142,Inactive
O=C(O)[C@@H]1CCCN1 [L-Proline],HEK293-hGPR142 EC50 (Emax),human GPR142,Inactive
C[C@H](N)C(=O)O [L-Alanine],HEK293-hGPR142 EC50 (Emax),human GPR142,Inactive
N[C@@H](Cc1ccccc1)C(=O)O [L-Phenylalanine],Emax,mouse GPR142,92%
same,potency on mouse GPR142 relative to L-Trp (fold less potent),mouse GPR142; HEK293 cell-based IP-1 assay,4 to 5 fold
same,EC50,mouse GPR142; 170 nM to 30 mM,2800 µM
same,IP-1 accumulation in HEK-hGPR142 cells,"human GPR142; Fig 1A, 1B",has an effect in this assay at concentrations comparable to that of L-Trp
same,Emax,human GPR142; [3],96%
same,EC50,human GPR142; 170 nM to 30 mM,3.5 mM
same,glucose excursion during IPGTT in Gpr142 KO mice,[1]; [5],clearly present
same,glucose excursion during IPGTT in WT mice,[1]; [5],clearly present
same,insulin secretion in Gpr142 KO islets compared with WT islets,murine pancreatic islets,not significantly different
same,insulin secretion in WT murine islets,murine pancreatic islets,more modest
same,GIP release in Gpr142 KO mice,[2]; [6],blunted
same,insulin release in Gpr142 KO mice,[2]; [6],blunted
same,plasma GLP-1 in Gpr142 KO mice,[2]; [6],increased GLP-1 in KO mice to a similar extent as in WT
NCCc1c[nH]c2ccccc12 [Trytamine],HEK293-hGPR142 EC50 (Emax),human GPR142,Inactive

# Reference: publication PMC4920590, “GPR142 Controls Tryptophan-Induced Insulin and Incretin Hormone Secretion to Improve Glucose Metabolism” (PLoS ONE, 2016)
